Results on 1 compound are retold here after patent EP2662079A1 (Ordway Research Institute, Inc., priority 2012, dated 2013).

Where “and” joins values, the source holds several entries; their conditions need not be identical. Equal entries are not always repeated.

Experiment [1] deals with GL261 murine brain tumor cells. Nature of the experiment: Clonogenic survival after single doses of 250 kVp x-rays. The class given is cell-based. The note with it: for α (Gy^-1) / β (Gy^-2): LQ; for SF2: survival at 2 Gy. How it is done:
To irradiate 25 cm^2 flasks, an x-ray machine was used and (Philips 250 kVp Therapeutic X-ray Machine, Einhoven, Germany) operated at 250 kVp and 15 mA with added filtration of 0.4 mm Thoreaus filter. The target to source distance was approximately 30 cm. Dose rates were measured using an R-meter (Victoreen R-meter, Cleveland, OH), and converted to absorbed (Gy) doses using appropriate temperature, pressure, and R to Gy conversion factors. The dose rate was 1 Gy per min. Flasks were irradiated at ambient temperature.
Experimental cells and FCs were added to treatment flasks before irradiation, and were then allowed to attach to the surfaces of the flask and incubated at 37°C for 1 hour. After incubation the flasks were irradiated using the 250 kVp x-ray source.
For […] analyses, survival data lying at or below 36.8% survival were analyzed by using the log fractional survival (log FxS) versus dose (D). Data were fit using linear regression analysis (SigmaPlot, V. 10, Systat Corp., Point Richmond, CA) to obtain the Y-intercept (or n, the extrapolation number) and the slope (1/D0), and their 95% confidence limits. (See Goldstein, A. In: Biostatistics, New York, The MacMillan Co., 1964, p. 140-146).. The Do value (Gy) is defined as the inverse of the slope, and the corrected Dq value (Gy) was then defined using the relationship: Dq(Gy) = ln n x D0 (Gy) [formula] The 95% confidence limits on Dq were defined using error propagation. (See Chase, et al., In: Principles of Radioisotope Methodology. Minneapolis, MN. Burgess Publ. Co., 1962, p. 68, 87-90).
For LQ analyses, data lying between a fractional survival of 1.00 and 0.05 were used. The fractional survival data at each dose were transformed using the relationship (-In FxS/D) and plotted against dose (D). A regression analysis was performed to yield the LQ equation along with their 95% confidence limit values using a t-table with the appropriate (N-1) degrees of freedom. (See Goldstein, A. In: Biostatistics, New York, The MacMillan Co., 1964, p. 140-146).
To determine the Tetrac modification factor (TMF), the survival at 2 Gy obtained for control cells was divided by the survival at 2 Gy for Tetrac treated cells. The 95% confidence limits on the ratio were determined using error propagation techniques. (See Chase, et al. In: Princiiples of Radioisotope Methodology, Minneapolis, MN, Burgress Publ. Co., 1962, p. 68, 87-90).

The test system of experiment [2] is chick chorioallantoic membrane (CAM). Nature of the experiment: Chorioallantoic membrane (CAM) model of angiogenesis. Format: in vivo. How it is done:
In vivo neovascularization was examined by methods described previously. 9-12 Ten-day-old chick embryos were purchased from SPAFAS (Preston, CT) and incubated at 37°C with 55% relative humidity. A hypodermic needle was used to make a small hole in the shell concealing the air sac, and a second hole was made on the broad side of the egg, directly over an avascular portion of the embryonic membrane that was identified by candling. A false air sac was created beneath the second hole by the application of negative pressure at the first hole, causing the CAM to separate from the shell. A window approximately 1.0 cm^2 was cut in the shell over the dropped CAM with a small-crafts grinding wheel (Dremel, division of Emerson Electric Co.), allowing direct access to the underlying CAM. FGF2 (1µg/mL) was used as a standard proangiogenic agent to induce new blood vessel branches on the CAM of 10-day-old embryos. Sterile disks of No. 1 filter paper (Whatman International) were pretreated with 3 mg/mL cortisone acetate and 1 mmol/L PTU and air dried under sterile conditions. Thyroid hormone, hormone analogs, FGF2 or control solvents, and inhibitors were then applied to the disks and the disks allowed to dry. The disks were then suspended in PBS and placed on growing CAMs. […] At 24 hours, the MAPK cascade inhibitor PD 98059 was also added to CAMs topically by means of the filter disks.
After incubation at 37°C with 55% relative humidity for 3 days, the CAM tissue directly beneath each filter disk was resected from control and treated CAM samples. Tissues were washed 3X with PBS, placed in 35-mm Petri dishes (Nalge Nunc), and examined under an SV6 stereomicroscope (Zeiss) at X50 magnification. Digital images of CAM sections exposed to filters were collected using a 3-charge-coupled device color video camera system (Toshiba) and analyzed with Image-Pro software (Media Cybernetics). The number of vessel branch points contained in a circular region equal to the area of each filter disk were counted. One image was counted in each CAM preparation, and findings from 8 to 10 CAM preparations were analyzed for each treatment condition (thyroid hormone or analogs, FGF2, FGF2 antibody, PD 98059). In addition, each experiment was performed 3 times. The resulting angiogenesis index is the mean ± SEM of new branch points.

For experiment [3], the system named is GL261 murine brain tumor cells. The experiment in a line: GL261 growth curve, cell size and colony forming efficiency. Format: cell-based. Here is the method: 1 x 10^5 cells per 25 cm^2 flask at time zero (density 40 cells/mm^2). Three flasks were utilized at each time period. The medium in the flasks was not changed over the duration of the growth curve (unfed cultures). Data were taken daily from day zero to day 11.5 post-seeding and cell numbers, age distributions, and apoptotic percentages were determined. After growth curve shapes (without and with 2 µM Tetrac) were determined, irradiation times at 70 and 270 hour post-seeding were chosen.
To obtain exponential and plateau phase cell numbers, we trypsinized ([…] trypsin-EDTA) cells for 5 min at 37°C.
For determination of CCDTs, the cell numbers per flask were determined on a daily basis. A four-day interval in the exponential region of growth to obtain the CCDTs, yielding a total of 12 estimations for analysis was utilized. A regression analysis was performed using the (log) of the cell number versus the linear time in days (SigmaPlot, V. 10, Systat Software, Inc., Point Richmond, CA). The log slope value and its standard error (SE) were determined, and the SE was converted to the 95% confidence limits using a two-tailed t-table at N-1 degrees of freedom where N is the number of samples. (See Goldstein, A. In: Biostatistics, New York, The MacMillan Co., 1964, p. 140-146).

Where [4] appears, read: Exponential Phase (with Tetrac).
Setting [5] is: Unfed plateau Phase (with Tetrac).
[6] abbreviates: SHMT, Unfed plateau Phase (with Tetrac).

For `O=C(O)Cc1cc(I)c(Oc2cc(I)c(O)c(I)c2)c(I)c1` [Tetrac, 3,3',5,5'-tetraiodothyroacetic acid], in experiment [1] (setting [4]), the “α (Gy^-1)” value is recorded as 0.930 Gy^-1, the “β (Gy^-2)” value is listed as 0.003 Gy^-2 and the SF2 is 14.2%. For the same compound, in experiment [1] (setting [5]), the “α (Gy^-1)” value is 1.157 Gy^-1, the “β (Gy^-2)” value was 0.066 Gy^-2 and the SF2 was 7.62 (6.82 - 8.51) %. The “D0 (Gy)” value in experiment [1] (SHMT, Exponential phase (with Tetrac)) was 1.08 Gy and 1.08 (0.09). Gy. For the same compound, in experiment [1] (setting [6]), the “D0 (Gy)” value is listed as 0.75 Gy and the “Dq (Gy)” value was determined as 0.00 Gy. The “sensitization of oxic and hypoxic cells” value in experiment [1] (Tetrac 2µM, graded doses of 250 kVp x-rays (Figure 60)) was “sensitize both oxic and hypoxic cells equally”. The “survival at 2 Gy” value in experiment [1] (Tetrac treated cells (non-Tetrac treated 32%)) was 13%. In experiment [1] (exponentially growing cells), the “increase of the Do value” was 15%, the “reduction of the Dq value” is listed as 100% and the “reduction of the extrapolation number” value was 93%. In experiment [1] (plateau phase cells), the reduction of n was 93%, the “reduction of the Do” value came out at 6% and the “reduction of the Dq” value came to 100%. The “effect of Tetrac alone on angiogenesis” value in experiment [2] (CAM model (Figure 3C)) was “no effect”. The “Mean Branch points” value in experiment [2] (CAM model, FGF (1.25 µg/ml) + compound at 10 µg/plug, n=8) amounted to 81± 8. The “effect on the action of T4 in the CAM model” value in experiment [2] (Tetrac 0.1 µmol/L) is recorded as “inhibited”. For the same compound, the “saturation density of control cells relative to Tetrac-treated cells” value in experiment [3] is reported as “approximately 2.4 times”. Also, the cell doubling time in experiment [3] (Tetrac-treated GL261 cells, 2 µM, exponential growth) was 43.8 ± 3.8 h and 43.8 h.
